Assays:
Assay type in all cases: biochemical
[1] = Glyoxal-trapping activity test (DMB derivatisation, HPLC); conditions: 0.02 mM glyoxal, 0.2 mM test compound, PBS, 37° C., 30 minutes
Method: (§1) In 0.2 mL of PBS were incubated 0.02 mM of glyoxal and 0.2 mM of test compound at 37° C. for 30 minutes. Subsequently, a volume of 5 mM DMB (1,2-diamino-4,5-methylenedioxy benzene) solution equivalent to 10 μL of the incubation sample was added, followed by further incubation at 4° C. for 7 hours to react the remaining methyl glyoxal with DMB. After the end of reaction, a 0.4 M phosphate buffer solution (pH 7.2) was added for neutralization, followed by quantitating the modified product of glyoxal-DMB using HPLC.
(§2) HPLC having a YMC-Pack Pro C18 column (φ4.6 mm×150 mm) and employing 5 mM sodium phosphate buffer (pH 7.4)-25% acetonitrile as a mobile phase was used at a flow rate of 0.7 mL/min to determine fluorescence strength at Ex352 nm and Em385 nm.
The proportion of glyoxal trapped by the test compound was calculated as % trapping activity, based on the quantitative value of the total modified product of glyoxal-DMB in the absence of the test compound.

[2] = test system: Maillard reaction (lysozyme / fructose, dimer formation); assay: Maillard reaction-inhibiting effects (lysozyme dimer formation with fructose, SDS-PAGE densitometry); conditions: 10 mg/mL lysozyme, 200 mM fructose, pH 7.4, 37° C., 4 days, dimer formation inhibition rate
Method: This Example examined Maillard reaction-inhibiting effects using, as test compounds, the compounds produced in the above-described Examples and the commercially available substances arginine hydroxamate (Compound No. 111), tyrosine hydroxamate (Compound No. 112), and tryptophan hydroxamate (Compound No. 113). More specifically, 10 mg/mL lysozyme, 200 mM fructose, and each of the above-described test compounds dissolved in a 0.4 mM sodium phosphate buffer (pH 7.4) so as to provide a concentrations of 0.1, 0.3, 1, or 3 mM were incubated at 37° C. for 4 days. After the incubation, the samples were subjected to SDS-PAGE, stained with Coomassie Brilliant Blue R-250, and quantitated for the formed dimmers using a densitometer. The Maillard reaction-inhibiting activity was defined as the dimmer formation inhibition rate of a test compound calculated on the basis that the amount of dimmer is 100% in the absence of the test compound, using, as blank, the amount of dimer in the absence of fructose and the test compound.

[3] = Methyl glyoxal-trapping activity test (DMB derivatisation, HPLC); conditions: 0.02 mM methyl glyoxal, 0.2 mM test compound, PBS, 37° C., 30 minutes
Method: as §1, with “mM of methyl glyoxal and” for “mM of glyoxal and”, “product of methyl glyoxal-DMB using” for “product of glyoxal-DMB using”
as §2
The proportion of methyl glyoxal trapped by the test compound was calculated as % trapping activity, based on the quantitative value of the total modified product of methyl glyoxal-DMB in the absence of the test compound.

[4] = test compound concentration 0.1 mM
[5] = test compound concentration 0.3 mM
[6] = test compound concentration 1 mM
[7] = test compound concentration 3 mM

| Compound | Glyoxal-trapping activity (% trapping) [1] [% trapping] | Maillard reaction-inhibiting activity (%) [2, 4] [%] | Maillard reaction-inhibiting activity (%) [2, 5] [%] | Maillard reaction-inhibiting activity (%) [2, 6] [%] | Maillard reaction-inhibiting activity (%) [2, 7] [%] | Methyl-glyoxal-trapping activity (% trapping) [3] [% trapping] |
| --- | --- | --- | --- | --- | --- | --- |
| CCCCCn1cc(CC(N)C(=O)NO)c2ccccc21 (racemic) [Compound No. 105, (RS)-2-amino-3-(1-pentyl-1H-indol-3-yl)-N-hydroxypropionamide] | 69.7 ± 1.1 | 95 | 97 | 98 | 98 | 93.3 ± 0.8 |
| NC(Cc1c[nH]c2ccccc12)C(=O)NO (stereo not drawn) [Compound No. 113, tryptophan hydroxamate] | 75.9 ± 0.9 | 42 | 76 | 99 | 102 | 96.2 ± 0.7 |
| N[C@@H](Cc1ccc(O)cc1)C(=O)NO [Compound No. 112, tyrosine hydroxamate] | 67.8 ± 1.2 | 24 | 61 | 99 | 101 | 74.4 ± 2.7 |
| CCCn1c(CC[C@H](N)C(=O)NO)nc2cc(Cl)c(Cl)cc21 [Compound No. 95, (S)-2-amino-4-(5,6-dichloro-1-propyl-1H-benzimidazol-2-yl)-N-hydroxybutyramide] | 65.7 ± 2.2 | 102 | 106 | 107 | 108 | 84.2 ± 0.6 |
| N=C(N)NN [Aminoguanidine, reference compound] | 32.9 ± 3.8 | −3 | −5 | 7 | 26 | 52.8 ± 1.5 |
| N[C@@H](Cc1cn(Cc2c(F)c(F)c(F)c(F)c2F)c2ccccc12)C(=O)NO [Compound No. 104, (S)-2-amino-3-(1-pentafluorophenylmethyl-1H-indol-3-yl)-N-hydroxypropionamide] | 66.5 ± 2.4 | 95 | 97 | 94 | 100 | 81.9 ± 2.1 |
